According to US8324280B2, “Treatment of prostate cancer with DDC inhibitor” (The University of British Columbia, priority 2008, dated 2012):

How the values were obtained:
C4-2 xenografts = assay: Androgen-independent C4-2 tumour xenografts in pre-castrated mice; format: in vivo
Protocol: Parental C4-2 cells were inoculated subcutaneously (s.c.), after resuspension in 0.1 mL of Matrigel (Becton Dickinson Labware), into two flank regions (2.5×10^6 cells/site) of 6 to 8 week old castrated (to ensure tumors will be androgen-independent) male athymic nude mice (Harlan Sprague Dawley, Inc.) via a 27-gauge needle under halothane anesthesia. Tumour volume and serum PSA measurements (blood collected from the tail vein) were performed once per week after tumours became palpable. PSA levels were measured by ELISA (ClinPro International) and tumour size was calculated by the formula; length×width×depth×0.5236. Once serum PSA values reached 75-100 ng/mL, mice were treated with or without carbidopa. Carbidopa was purchased from Sigma and dissolved in DMSO. The solution was diluted in PBS to a final concentration of 10% DMSO and sterilized through a 0.2 μm filter. Carbidopa solution was injected intraperitoneally into half of the mice (25 mg per kg of body weight) for the +carbidopa groups, while the remaining mice received vehicle injections consisting of 10% DMSO in PBS (−carbidopa groups). Injections were carried out daily for the duration of the experiment. Each animal group contained 2-3 mice. PSA measurements were used to calculate PSA velocity and volume measurements were used to determine the tumour growth rate for all groups with linear regression slope analysis (see Statistical Analysis below). PSA velocity was defined as the increase in PSA level (normalized to pre-treatment value set at 100%) divided by number of days that PSA was reliably measurable (21 days). […] All animal procedures were performed according to the guidelines of the Canadian Council of Animal Care and with appropriate institutional certification. C4-2 xenograft tumour volume and PSA values (−/+carbidopa) were used for linear regression slope analysis to determine PSA velocity and tumour growth rate with GraphPad Prism 4, version 4.03. PSA velocity and tumour growth rate differences were determined using the Student's t-test.

C4-2 cells = assay: MTS cell proliferation assay, androgen-independent C4-2 cells; format: cell-based, human; details: 25 μM
Protocol: Cell proliferation assays were performed using the 3-(4,5-dimethylhiazol-2-yl)-5-(3-carboxymethoxyphenyl)-2-(4-sulfophenyl)-2H-tetrazolium Assay (MTS) according to the manufacturer's protocol, with minor modifications (Promega). C4-2 cells were plated in 96-well plates at a density of 750 cells per well in RPMI medium containing 5% CSS for 1 day. On the following day, the DDC inhibitors, carbidopa (25 μM) and NSD-1015 (10 μM)±0.1 nM R1881 were added to each well in charcoal-stripped serum (CSS; Hyclone, VWR) RPMI media. The cells were harvested at days 0, 2, 4, and 6, with a medium change every 3 days. Each time point was measured with 6 replicates.
Student's t-test (two-sample equal variance) was used to evaluate statistically significant differences. All calculated p-values were two-sided and those less than 0.05 were considered statistically significant.

`C[C@@](Cc1ccc(O)c(O)c1)(NN)C(=O)O` [carbidopa, α-Methyl-dopahydrazine] was tested, and the “reduction of tumour growth rate versus control” value (C4-2 xenografts; 21 days) was 2.1 fold, the “decrease in PSA velocity versus control non-treated” value (C4-2 xenografts; over 21 days) was 4.1 fold and the tumour growth rate (C4-2 xenografts; pre-castrated mice, 25 mg/kg i.p. daily, 21 days) was 5.7±0.6. The “PSA velocity (rate of PSA production)” value (C4-2 xenografts; pre-castrated mice, 25 mg/kg i.p. daily, over 21 days) was 4.7±2, the “reduction of number of cells relative to control non-treated cells” value (C4-2 cells; day 6, absence of androgen) was 1.58 fold and the “reduction of number of cells relative to control non-treated cells” value (C4-2 cells; day 6, presence of androgen (0.1 nM R1881)) was 1.80 fold.
